Reference: PubChem BioAssay AID1963959 (Molecular Pharmacology Branch, DTP, NCI, 2024)

Test system: T-47D spheroids with HUVEC/MSC, viability
Assay: Anticancer human tumor T-47D cell line growth inhibition [PI3K];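 further: spheroids exposed to agents for seven days before reading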;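 on viability, T/C: percent of DMSO vehicle control luminescence so 100% = untreated growth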
Conditions: for IC50: curve of first compound; for viability, T/C: stronger effect = lower value
Method in brief: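 Agents were dosed from a top concentration near clinical Cmax (otherwise 10 microM) in half-log decrements, alone or combined with PI3K inhibitors. The spheroids contain tumor cells plus endothelial (HUVEC) and MSC stroma; viability is measured.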

[1] = second compound 0.0316 µM, first compound 0.0316 µM
[2] = second compound 0.0316 µM, first compound 0.1 µM
[3] = second compound 0.0316 µM, first compound 0.316 µM
[4] = second compound 0.0316 µM, first compound 1 µM
[5] = second compound 0.0316 µM, first compound 3.16 µM
[6] = second compound 0.0316 µM, first compound 10 µM
[7] = second compound 0.1 µM, first compound 0.0316 µM
[8] = second compound 0.1 µM, first compound 0.1 µM
[9] = second compound 0.1 µM, first compound 0.316 µM
[10] = second compound 0.1 µM, first compound 1 µM
[11] = second compound 0.1 µM, first compound 3.16 µM
[12] = second compound 0.1 µM, first compound 10 µM
[13] = second compound 0.316 µM, first compound 0.0316 µM
[14] = second compound 0.316 µM, first compound 0.1 µM
[15] = second compound 0.316 µM, first compound 0.316 µM
[16] = second compound 0.316 µM, first compound 1 µM
[17] = second compound 0.316 µM, first compound 3.16 µM
[18] = second compound 0.316 µM, first compound 10 µM
[19] = second compound 1 µM, first compound 0.0316 µM
[20] = second compound 1 µM, first compound 0.1 µM
[21] = second compound 1 µM, first compound 0.316 µM
[22] = second compound 1 µM, first compound 1 µM
[23] = second compound 1 µM, first compound 3.16 µM
[24] = second compound 1 µM, first compound 10 µM
[25] = second compound 3.16 µM, first compound 0.0316 µM
[26] = second compound 3.16 µM, first compound 0.1 µM
[27] = second compound 3.16 µM, first compound 0.316 µM
[28] = second compound 3.16 µM, first compound 1 µM
[29] = second compound 3.16 µM, first compound 3.16 µM
[30] = second compound 3.16 µM, first compound 10 µM
[31] = second compound 10 µM, first compound 0.0316 µM
[32] = second compound 10 µM, first compound 0.1 µM
[33] = second compound 10 µM, first compound 0.316 µM
[34] = second compound 10 µM, first compound 1 µM
[35] = second compound 10 µM, first compound 3.16 µM
[36] = second compound 10 µM, first compound 10 µM

CNC(=O)c1ccc(N2C(=S)N(c3ccc(C#N)c(C(F)(F)F)c3)C(=O)C2(C)C)cc1F + CC(Nc1ncnc2nc[nH]c12)c1cc2cccc(Cl)c2c(=O)n1-c1ccccc1
IC50 (second compound 0.0316 µM): > 10 µM | IC50 (second compound 0.1 µM): > 10 µM | IC50 (second compound 0.316 µM): > 10 µM | IC50 (second compound 1 µM): > 10 µM | IC50 (second compound 3.16 µM): > 10 µM | IC50 (second compound 10 µM): > 10 µM | viability, T/C [1]: 117% | viability, T/C [2]: 108% | viability, T/C [3]: 96.2% | viability, T/C [4]: 85.9% | viability, T/C [5]: 97.1% | viability, T/C [6]: 79.6% | viability, T/C [7]: 101% | viability, T/C [8]: 85.4% | viability, T/C [9]: 114% | viability, T/C [10]: 99.9% | viability, T/C [11]: 95.4% | viability, T/C [12]: 80.2% | viability, T/C [13]: 89% | viability, T/C [14]: 88% | viability, T/C [15]: 84.2% | viability, T/C [16]: 80.7% | viability, T/C [17]: 92.3% | viability, T/C [18]: 86.5% | viability, T/C [19]: 93.7% | viability, T/C [20]: 87.5% | viability, T/C [21]: 78.1% | viability, T/C [22]: 86% | viability, T/C [23]: 91.7% | viability, T/C [24]: 76.9% | viability, T/C [25]: 88.5% | viability, T/C [26]: 76.4% | viability, T/C [27]: 86% | viability, T/C [28]: 85.5% | viability, T/C [29]: 95.2% | viability, T/C [30]: 94% | viability, T/C [31]: 96.8% | viability, T/C [32]: 90.9% | viability, T/C [33]: 84.3% | viability, T/C [34]: 84.1% | viability, T/C [35]: 98.3% | viability, T/C [36]: 88.7%

CC(C)NCC(C(=O)N1CCN(c2ncnc3c2C(C)CC3O)CC1)c1ccc(Cl)cc1 (stereo unspecified) + CC(Nc1ncnc2nc[nH]c12)c1cc2cccc(Cl)c2c(=O)n1-c1ccccc1
IC50 (second compound 0.0316 µM): > 10 µM | IC50 (second compound 0.1 µM): > 10 µM | IC50 (second compound 0.316 µM): > 10 µM | IC50 (second compound 1 µM): > 10 µM | IC50 (second compound 3.16 µM): > 10 µM | IC50 (second compound 10 µM): > 10 µM | viability, T/C [1]: 107% | viability, T/C [2]: 73.4% | viability, T/C [3]: 91.6% | viability, T/C [4]: 81.4% | viability, T/C [5]: 59.9% | viability, T/C [6]: 57.2% | viability, T/C [7]: 111% | viability, T/C [8]: 75.5% | viability, T/C [9]: 88.5% | viability, T/C [10]: 66.2% | viability, T/C [11]: 60.2% | viability, T/C [12]: 63.6% | viability, T/C [13]: 98.3% | viability, T/C [14]: 78.6% | viability, T/C [15]: 77.4% | viability, T/C [16]: 65.9% | viability, T/C [17]: 65.2% | viability, T/C [18]: 62.2% | viability, T/C [19]: 79.8% | viability, T/C [20]: 104% | viability, T/C [21]: 90.1% | viability, T/C [22]: 63.4% | viability, T/C [23]: 61.9% | viability, T/C [24]: 60.4% | viability, T/C [25]: 98.7% | viability, T/C [26]: 84.4% | viability, T/C [27]: 81.7% | viability, T/C [28]: 87.5% | viability, T/C [29]: 55.3% | viability, T/C [30]: 62.9% | viability, T/C [31]: 93.5% | viability, T/C [32]: 93.1% | viability, T/C [33]: 87.3% | viability, T/C [34]: 74% | viability, T/C [35]: 67.3% | viability, T/C [36]: 57.9%

CC1(C)CCC(Nc2ncc(C(F)(F)F)c(-c3c[nH]c4c(P(C)(C)=O)c(C#N)ccc34)n2)CN1 (stereo unspecified) + Cc1nc(NC(=O)N2CCCC2C(N)=O)sc1-c1ccnc(C(C)(C)C(F)(F)F)c1
IC50 (second compound 0.0316 µM): 8.08 µM | IC50 (second compound 0.1 µM): > 10 µM | IC50 (second compound 0.316 µM): 4.92 µM | IC50 (second compound 1 µM): 3.39 µM | IC50 (second compound 3.16 µM): < 0.0316 µM | IC50 (second compound 10 µM): < 0.0316 µM | viability, T/C [1]: 73.6% | viability, T/C [2]: 64.5% | viability, T/C [3]: 73.7% | viability, T/C [4]: 72.4% | viability, T/C [5]: 72.2% | viability, T/C [6]: 45.1% | viability, T/C [7]: 68.7% | viability, T/C [8]: 65.8% | viability, T/C [9]: 65.6% | viability, T/C [10]: 64.6% | viability, T/C [11]: 70.9% | viability, T/C [12]: 42.9% | viability, T/C [13]: 67% | viability, T/C [14]: 57.7% | viability, T/C [15]: 55% | viability, T/C [16]: 55.7% | viability, T/C [17]: 59.2% | viability, T/C [18]: 35.9% | viability, T/C [19]: 56.7% | viability, T/C [20]: 58.1% | viability, T/C [21]: 45.2% | viability, T/C [22]: 44.2% | viability, T/C [23]: 54.4% | viability, T/C [24]: 22.7% | viability, T/C [25]: 47.3% | viability, T/C [26]: 41.3% | viability, T/C [27]: 42.3% | viability, T/C [28]: 38.6% | viability, T/C [29]: 40.1% | viability, T/C [30]: 8.96% | viability, T/C [31]: 30.3% | viability, T/C [32]: 29.4% | viability, T/C [33]: 26.6% | viability, T/C [34]: 27.5% | viability, T/C [35]: 20.8% | viability, T/C [36]: 3.07%
